Assay results from patent US20260224503A1, “METHOD FOR PRODUCING PARTICLE, AND PARTICLE PRODUCED BY THE METHOD AND MEDICAMENT” (Ricoh Company, Ltd., priority 2018, published 2026).

What was measured:
[1] = Dissolution of diclofenac, dissolution test first liquid (pH 1.2); assay type: physicochemical
Experimental: (§1) Specifically, The Japanese Pharmacopoeia dissolution test first solution (1,000 mL of a liquid prepared by dissolving 2.0 g of sodium chloride and 7.0 mL of hydrochloric acid in water, pH 1.2) and dissolution test second solution (50 mL of phosphate buffer solution, pH 6.8 (a liquid prepared by mixing water with a liquid, which had been prepared by dissolving 3.4 g of potassium dihydrogen phosphate and 3.55 g of anhydrous disodium hydrogen phosphate in water to give 1,000 mL, at the mixing ratio of 1:1, pH 6.8)) were used as the test liquids, and the test was performed at 37±0.5 degrees Celsius and at the rotational speed of 50 rpm.

[2] = Dissolution of diclofenac, dissolution test second liquid (pH 6.8); assay type: physicochemical; conditions: for Diclofenac concentration pH 6.8: 2 mg diclofenac, 37 degrees Celsius, 50 rpm
Experimental: as §1

Compound: O=C(O)Cc1ccccc1Nc1c(Cl)cccc1Cl [diclofenac bulk powder, diclofenac]
- dissolution of diclofenac, in words [1]: prompt elusion
- Diclofenac concentration pH 6.8 ([2]; collection time 0 min): 0 μg/mL
- Diclofenac concentration pH 6.8 ([2]; collection time 10 min): 20.92 ± 0.66 μg/mL
- Diclofenac concentration pH 6.8 ([2]; collection time 20 min): 19.83 ± 0.74 μg/mL
- Diclofenac concentration pH 6.8 ([2]; collection time 30 min): 20.07 ± 0.59 μg/mL
- Diclofenac concentration pH 6.8 ([2]; collection time 40 min): 19.97 ± 0.22 μg/mL
- Diclofenac concentration pH 6.8 ([2]; collection time 60 min): 20.42 ± 0.46 μg/mL
- Diclofenac concentration pH 6.8 ([2]; collection time 90 min): 20.21 ± 0.54 μg/mL
- Diclofenac concentration pH 6.8 ([2]; collection time 120 min): 20.45 ± 0.69 μg/mL
- dissolution of diclofenac, in words ([2]; dissolution test second liquid (pH 6.8)): sustained release
